“Also recorded” adds a separate entry of the source.
What was measured:
[1] = Penetration test: active substance penetration through enzymatically isolated apple leaf cuticles in diffusion cells, radioactively marked active substance; format: in vitro ADME, apple trees of the Golden Delicious variety
Description: In this test, the penetration of active substances through enzymatically isolated cuticles of apple tree leaves was measured.
Leaves which were cut off in the stage of full development of apple trees of the Golden Delicious variety were used. The isolation of the cuticles was effected in a manner such that • first, leaf disks marked on the underside with dye and punched out were filled by means of vacuum infiltration with a pectinase solution (0.2 to 2% strength by weight) buffered to a pH between 3 and 4, • sodium azide was then added and • the leaf disks thus treated were allowed to stand until disintegration of the original leaf structure and detachment of the noncellular cuticle.
Thereafter, only those cuticles of the upper sides of the leaves which were free of stomata and hairs were further used. They were washed several times alternately with water and a buffer solution at pH 7. The cleaned cuticles obtained were finally drawn onto small Teflon plates and smoothed and dried with a gentle air jet.
In the next step, the cuticle membranes thus obtained were placed in stainless steel diffusion cells (=transport chambers) for membrane transport investigations. For this purpose, the cuticles were placed by means of forceps centrally on the silicone grease-coated edges of the diffusion cells and closed with a likewise greased ring. The arrangement was chosen so that the morphological outside of the cuticles faced outward, i.e. toward the air, while the original inside faced the interior of the diffusion cell. The diffusion cells were filled with water or with a mixture of water and solvent.
For determining the penetration, in each case 10 μl of a spray liquor of the composition mentioned in the examples were applied to the outside of a cuticle.
In each case the solvents listed below in the table (tap water or a mixture with 20% by weight of acetone/80% by weight of tap water) were used in the spray liquors.
After the application of the spray liquors, in each case the solvent was allowed to evaporate, and in each case the chambers were then turned around and placed in thermostated trays, air having a defined temperature and atmospheric humidity being blown onto the outside of the cuticle. The incipient penetration therefore took place at a relative humidity of 60% and a set temperature of 20 or 25° C. The active substance penetration was measured with radioactively marked active substance.

crop plant = test: Crop plant tolerance tests; format: in vivo; conditions: compared with other alkyl ester additives; no data shown
[2] = penetration of tebuconazole 0.3 g/l, without or with 2.0 g/l penetration enhancer, acetone/tap water 20/80% by weight, apple leaf cuticles, T = 20-25° C., rel. humidity 56-60%, mean of 4-8 repetitions

Q: For `CCCCOCCOP(=O)(OCCOCCCC)OCCOCCCC` [TBEP, tributoxyethyl phosphate], which “Effect of the penetration enhancer on uptake of the active substances (in words)” value ([1]; summary of tables 1 and 2, 2.0 g/l TBEP with 0.3 g/l fungicide) is on record?
A: Its value is “considerable increase in uptake of the active substances; also recorded: advantageously higher increase in uptake of active substances than the penetration enhancers of the prior art”.

Q: And the Crop plant tolerance (crop plant)?
A: The Crop plant tolerance was “more tolerant than other alkyl ester additives”.

Q: Which “% Penetration (after hours): 3 hours” value ([1]; apple tree, 3 h, 0.3 g/l) does the source give for `O=C(NCc1ncc(C(F)(F)F)cc1Cl)c1c(Cl)cccc1Cl` [fluopicolid, 2,6-dichloro-N-[[3-chloro-5-(trifluoromethyl)-2-pyridinyl]methyl]benzamide] here?
A: The value was 0.1 (3) %.

Q: And the “% Penetration (after hours): 24 hours” value ([1]; apple tree, 24 h, 0.3 g/l)?
A: Its value is 0.6 (24) %.

Q: For `OC(Cc1ccccc1Cl)(Cn1nc[nH]c1=S)C1(Cl)CC1` (centres unmarked) [prothioconazole], which “% Penetration (after hours): 3 hours” value ([1]; after 3 h, 0.3 g/l active substance, without or with 2.0 g/l TBEP, acetone/tap water 20/80% by weight, apple leaf cuticles, T = 20-25° C., rel. humidity 56-60%, mean of 4-8 repetitions) is on record?
A: Its value is 0.04 (3) %.

Q: What about the “% Penetration (after hours): 24 hours” value ([1]; after 24 h, 0.3 g/l active substance, without or with 2.0 g/l TBEP, acetone/tap water 20/80% by weight, apple leaf cuticles, T = 20-25° C., rel. humidity 56-60%, mean of 4-8 repetitions) of the same compound?
A: The value was 0.6 (24) %.

Q: Which results are given for `CC(C)(C)C(O)(CCc1ccc(Cl)cc1)Cn1cncn1` (centres unmarked) [tebuconazole]?
A: % Penetration (after 3 hours) [1, 2]: 0.9%; % Penetration (after 24 hours) [1, 2]: 1.1%

Reference: patent US20100048733A1, “PENETRATION ENHANCER FOR FUNGICIDES” (Bayer CropScience AG, priority 2006, published 2010)
